Test results: patent US8871772B2, “Therapeutic methods and compounds” (Ampio Pharmaceuticals, Inc., priority 2008, dated 2014)

How the values were obtained:
Type in all cases: cell-based
Akt = Akt phosphorylation in WM-266-4 melanoma cells, CASE ELISA (S473); settings: IGF-1 stimulated; for inhibition at 50 µM: WM 266-4, WM-266-4, 50 μM
Method: Assays were performed to determine the effect of Cpd. 5 (synthesis described in Example 1) on phosphorylation of Akt in WM-266-4, a metastatic melanoma cell line obtained from ATCC. The WM-266-4 cells were grown in 25 cm^2 flasks using IMDM medium (obtained from Lonza) supplemented with 10% fetal bovine serum (FBS, HyClone) and 1% penicillin/streptomycin solution (Lonza). Cells were removed from the flasks using trypsin/EDTA (Lonza) and counted using trypan blue to establish cell counts. Cells in the above supplemented IMDM medium were added to the wells of a 96-well plate (10,000 cells/well), and the plates were incubated at 37° C., 5% CO2, for 24 hours. After 24 hours, the medium was removed and replaced with medium not containing any serum (serum-free IMDM), and the plates were incubated at 37° C., 5% CO2, for an additional 24 hours.
After this incubation, the test compounds were added to the plates as follows. A 20 mM stock solution of Cpd. 5 was prepared in DMSO and frozen at −80° C. Aliquots of the stock solution were removed and dilutions were made in serum-free IMDM medium. Final concentrations of Cpd. 5 were 10 μM and 50 μM. Controls containing equivalent amounts of DMSO as the two concentrations of Cpd. 5 (0.05% and 0.25%) were mixed for comparative purposes. The other control was the PI3 kinase inhibitor, LY294002 (obtained from Sigma), final concentration of 50 μM. 100 μl of each test compound solution were then added to 96 well culture plates in duplicate, and the plates were placed back into the incubator and incubated at 37° C., 5% CO2, for 1 hour.
Following this incubation, 100 μl of serum-free IMDM containing either 0 or 400 ng/ml IGF-1 (obtained from Sigma), an Akt phosphorylation promoter, were added, and the plates incubated at 37° C., 5% CO2, for 1 more hour. At the end of this time, the cells were fixed immediately with 4% formaldehyde, refrigerated, and the extent of phosphorylation of Akt determined using the Akt Cellular Activation of Signaling ELISA (CASE™ Kit for AKT S473; SABiosciences, Frederick, Md.) following the manufacturer's protocols. The CASE™ Kit for AKT S473 quantifies the amount of activated (phosphorylated) Akt protein relative to total Akt protein. For further details of the CASE ELISA assay, see Example 6.
The results were calculated as follows. The treatment groups containing IGF-I/DMSO were subtracted from their respective IGF-1/DMSO only groups (positive control). This value was divided by the difference between the respective DMSO only group (negative control) and the respective positive control. This value represents the percent inhibition of Akt phosphorylation attributable to the inhibitor alone since the contribution of DMSO is subtracted out.

[1] = tested on: AU565 breast cancer cell line; experiment: Proliferation of AU565 cancer cells, Promega cell titer assay; settings: 96 hours, negative number = increase
Method: (§1) Assays were performed to determine the effect of Cpd. 5 (synthesis described in Example 1) on proliferation of two cancer cell lines. These two cell lines were STTG grade 4 astrocytoma cell line and AU565 breast cancer cell line. Both cell lines were obtained from American Type Culture Collection, Rockville, Md. (ATCC).
(§2) To perform the assays, a 50 mM stock solution of Cpd. 5 was prepared in DMSO and frozen at −80° C. Aliquots of the stock solution were removed and 100 μM dilutions were made in Iscove's modified Dulbecco's medium (IMDM; obtained from ATCC) supplemented with 10% fetal bovine serum (FBS) and penicillin/streptomycin solution. Controls containing equivalent amounts of DMSO to the 100 μM solution were mixed for comparative purposes. 100 μl of the resulting solutions were then added to 96 well culture plates in triplicate and placed in a 37° C. incubator with 5% CO2 to warm.
(§3) At this point, cells were removed from passage flasks using trypsin and counted using trypan blue to establish cell counts/ml and viability. For all experiments, viability of cells was greater than 95%. Solutions of 4,000 cells/100 μl were prepared in the medium from above and 100 μl of the solutions were added to each well of the plates. The plates were placed back in the incubator and incubated with the compounds for 96 hours.
(§4) Following incubation, cell proliferation was assayed by adding 20 μl Promega cell titer aqueous one reagent to each well. […] The plates were incubated at 37° C. for an additional 4-18 hours to allow the colorimetric assay to develop, and the OD of each well was determined in a microplate reader using a 530 nm filter. The OD of wells containing cell titer reagent in culture medium with no cells was subtracted from the OD of all experimental readings.
(§5) The % decrease of the total cell titer signal was determined using the following formula. […] The p values were calculated versus diluent controls.

AU565 cells = experiment: Cytotoxicity on confluent AU565 monolayers, cell titer assay
Method: To determine whether the decrease in cell titer signal caused by Cpd. 5 was due to the inhibition of proliferation or to cytotoxicity, STTG and AU565 cells were seeded at 10,000 cells/well in 96-well plates and grown until a confluent monolayer was obtained. Under these conditions, the cells should no longer proliferate. The culture medium was IMDM supplemented with 10% FBS. After the cells reached confluence, the culture medium was removed by aspiration and replaced with fresh medium containing the test compounds (see Table 2 below). The cell cultures were incubated for an additional 24 hours in the presence of the added compounds and then the cell titer signal was assayed by adding 20 μl Promega cell titer aqueous one reagent to each well. The plates were incubated at 37° C. for an additional 2 hours to allow the colorimetric assay to develop, and the OD of each well was determined in a microplate reader using a 530 nm filter. The OD of wells containing cell titer reagent in culture medium with no cells was subtracted from the OD of all experimental readings.
The % decrease of the total cell titer signal was determined using the following formula. ((Diluent OD−Experimental OD)/Diluent OD))×100. Data are presented in Table 2 as mean % decrease of cell titer signal of three separate experiments, plus or minus standard deviation. In the mean % decrease column, a positive number means a decrease in cell titer signal, while a negative number means an increase. The p values were calculated versus diluent controls.
This experiment was repeated, except using incubations of 18 hours, instead of 24 hours, in the presence of the compounds and 4 hours, instead of 2 hours, for color development.

[2] = tested on: STTG grade 4 astrocytoma cell line; experiment: Proliferation of STTG cancer cells, Promega cell titer assay; settings: 96 hours, negative number = increase
Method: as §1, §2, §3, §4, §5

[3] = confluent AU565, 50 μM, 18 hours
[4] = confluent AU565, 50 μM, 24 hours

Compound	inhibition at 10 µM (Akt; Homo sapiens, WM 266-4, WM-266-4, 10 μM) [%]	inhibition at 50 µM (Akt; Homo sapiens) [%]	MEAN % INHIBITION OF Akt PHOSPHORYLATION (Akt; WM-266-4, 50 μM, 50 µM) [%]	MEAN % DECREASE of cell titer signal ([1]; AU565, 50 μM) [%]	MEAN % DECREASE of cell titer signal (AU565 cells; confluent AU565, 10 μM, 18 hours) [%]	MEAN % DECREASE of cell titer signal (AU565 cells; confluent AU565, 10 μM, 24 hours) [%]	MEAN % DECREASE of cell titer signal (AU565 cells; [3]) [%]	MEAN % DECREASE of cell titer signal (AU565 cells; [4]) [%]	MEAN % DECREASE of cell titer signal (AU565 cells; confluent AU565, 100 μM, 18 hours) [%]	MEAN % DECREASE of cell titer signal (AU565 cells; confluent AU565, 100 μM, 24 hours) [%]	MEAN % DECREASE of cell titer signal ([2]; 50 μM) [%]	MEAN % DECREASE of cell titer signal ([1]; AU565, 20 μM) [%]	MEAN % DECREASE of cell titer signal ([2]; 20 μM) [%]
COC(=O)C(c1ccc(-c2ccccc2)cc1)C1NC(=O)CNC1=O (stereo not shown) [Cpd. 5, biphenyl-4-yl-(3,6-dioxo-piperazin-2-yl)-acetic acid methyl ester]	102	47	55.9	13.44	−5.61	−8.87	−9.73	−10.79	−10.69	−11.05	78.74	–	–
O=c1cc(N2CCOCC2)oc2c(-c3ccccc3)cccc12 [LY294002, reference compound]	–	23.1	–	–	–	–	22.25	2.94	–	–	–	61.95	−46.72
